Results taken from ChEMBL document CHEMBL5316345, “Discovery of the Potent and Selective MC4R Antagonist PF-07258669 for the Potential Treatment of Appetite Loss” (J Med Chem, 2023).
Calls of active or inactive are those of the source. No cut-off for these calls is given here.

Tests used:
[1] = target: Voltage-dependent L-type calcium channel subunit alpha-1C (Homo sapiens, UniProt Q13936); test: Inhibition of Cav1.2 (unknown origin)
Melanocortin receptor 5 [2] = target: T1, Melanocortin receptor 5 (Homo sapiens, UniProt P33032); test: Displacement of [125I]-NDP-alpha-MSH from human MC5R expressed in CHO cells measured for 2 hrs by microbeta counter analysis; type: cell-based
T1 sequence (P33032 whole entry): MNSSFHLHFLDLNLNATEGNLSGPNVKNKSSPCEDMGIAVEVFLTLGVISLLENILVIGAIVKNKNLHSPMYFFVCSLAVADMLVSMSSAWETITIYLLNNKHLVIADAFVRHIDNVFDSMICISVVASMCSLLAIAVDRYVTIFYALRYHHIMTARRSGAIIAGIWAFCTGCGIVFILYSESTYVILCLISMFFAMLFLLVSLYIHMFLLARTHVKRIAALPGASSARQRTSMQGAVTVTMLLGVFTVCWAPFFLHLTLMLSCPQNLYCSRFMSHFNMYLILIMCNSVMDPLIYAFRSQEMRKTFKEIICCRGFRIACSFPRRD

Mus musculus [3] = test: Effect on body weight in anorexia/cachexia mouse model assessed as body weight gain administered twice a day for 20 days and measured at 1 to 21 days; type: functional, organism-based; conditions: dose 0.3-10 mg/kg, time 1-21 day
[4] = AUC (0 to infinity) in Beagle dog at 1 mg/kg, iv measured at 0.033 to 24 hrs by LC-MS/MS analysis; type: ADME, organism-based, Canis lupus familiaris; parameters: time upper 24 hrs, dose 1 mg/kg, time lower 0.033 hrs, route iv; conditions: in vivo
Mus musculus [5] = test: Effect on body weight in anorexia/cachexia mouse model assessed as reduction in cumulative food intake at 1 mg/kg, po administered twice a day for 20 days and measured at 1 to 21 days; type: functional; parameters: scale not given: the % may be the effect or the level left; conditions: time 1-21 day
[6] = Tmax in Beagle dog at 1 mg/kg, po measured at 0.25 to 24 hrs by LC-MS/MS analysis; type: ADME, organism-based, Canis lupus familiaris; conditions: in vivo, time 0.25-24 hrs
[7] = AUC (0 to infinity) in Wistar Han rat at 5 mg/kg, po measured at 0.083 to 24 hrs by LC-MS/MS analysis; type: ADME, organism-based; parameters: dose 5 mg/kg, time 0.083-24 hrs, route po; conditions: in vivo
[8] = target: cGMP-dependent 3',5'-cyclic phosphodiesterase (Homo sapiens, UniProt O00408); test: Inhibition of human PDE2A1
Sequence of cGMP-dependent 3',5'-cyclic phosphodiesterase (O00408 whole entry): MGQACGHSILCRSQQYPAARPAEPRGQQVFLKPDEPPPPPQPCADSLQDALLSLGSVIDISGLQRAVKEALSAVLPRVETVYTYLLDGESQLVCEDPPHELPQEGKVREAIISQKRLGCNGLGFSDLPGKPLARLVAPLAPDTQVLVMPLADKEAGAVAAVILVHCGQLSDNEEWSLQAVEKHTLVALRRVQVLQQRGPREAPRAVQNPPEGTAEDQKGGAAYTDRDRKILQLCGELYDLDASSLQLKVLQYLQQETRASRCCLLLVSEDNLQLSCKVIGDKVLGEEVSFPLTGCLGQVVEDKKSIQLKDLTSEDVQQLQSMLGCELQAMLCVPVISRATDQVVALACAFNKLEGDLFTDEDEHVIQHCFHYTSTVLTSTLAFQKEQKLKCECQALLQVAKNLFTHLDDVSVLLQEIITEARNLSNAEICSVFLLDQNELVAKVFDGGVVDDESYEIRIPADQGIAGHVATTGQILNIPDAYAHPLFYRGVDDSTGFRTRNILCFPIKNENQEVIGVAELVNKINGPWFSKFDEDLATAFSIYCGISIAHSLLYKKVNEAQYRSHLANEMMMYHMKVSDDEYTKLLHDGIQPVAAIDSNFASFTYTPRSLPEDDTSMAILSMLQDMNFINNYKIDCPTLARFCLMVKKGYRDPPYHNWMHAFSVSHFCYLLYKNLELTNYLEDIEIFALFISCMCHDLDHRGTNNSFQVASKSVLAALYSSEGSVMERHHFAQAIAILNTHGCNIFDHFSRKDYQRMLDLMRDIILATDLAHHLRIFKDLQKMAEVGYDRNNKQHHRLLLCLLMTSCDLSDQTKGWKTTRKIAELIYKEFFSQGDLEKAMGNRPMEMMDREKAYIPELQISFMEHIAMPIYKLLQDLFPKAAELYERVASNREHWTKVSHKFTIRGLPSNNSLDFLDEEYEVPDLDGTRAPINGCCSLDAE

[9] = target: cGMP-inhibited 3',5'-cyclic phosphodiesterase 3A (Homo sapiens, UniProt Q14432); test: Inhibition of human PDE3A
Sequence of cGMP-inhibited 3',5'-cyclic phosphodiesterase 3A (Q14432 whole entry): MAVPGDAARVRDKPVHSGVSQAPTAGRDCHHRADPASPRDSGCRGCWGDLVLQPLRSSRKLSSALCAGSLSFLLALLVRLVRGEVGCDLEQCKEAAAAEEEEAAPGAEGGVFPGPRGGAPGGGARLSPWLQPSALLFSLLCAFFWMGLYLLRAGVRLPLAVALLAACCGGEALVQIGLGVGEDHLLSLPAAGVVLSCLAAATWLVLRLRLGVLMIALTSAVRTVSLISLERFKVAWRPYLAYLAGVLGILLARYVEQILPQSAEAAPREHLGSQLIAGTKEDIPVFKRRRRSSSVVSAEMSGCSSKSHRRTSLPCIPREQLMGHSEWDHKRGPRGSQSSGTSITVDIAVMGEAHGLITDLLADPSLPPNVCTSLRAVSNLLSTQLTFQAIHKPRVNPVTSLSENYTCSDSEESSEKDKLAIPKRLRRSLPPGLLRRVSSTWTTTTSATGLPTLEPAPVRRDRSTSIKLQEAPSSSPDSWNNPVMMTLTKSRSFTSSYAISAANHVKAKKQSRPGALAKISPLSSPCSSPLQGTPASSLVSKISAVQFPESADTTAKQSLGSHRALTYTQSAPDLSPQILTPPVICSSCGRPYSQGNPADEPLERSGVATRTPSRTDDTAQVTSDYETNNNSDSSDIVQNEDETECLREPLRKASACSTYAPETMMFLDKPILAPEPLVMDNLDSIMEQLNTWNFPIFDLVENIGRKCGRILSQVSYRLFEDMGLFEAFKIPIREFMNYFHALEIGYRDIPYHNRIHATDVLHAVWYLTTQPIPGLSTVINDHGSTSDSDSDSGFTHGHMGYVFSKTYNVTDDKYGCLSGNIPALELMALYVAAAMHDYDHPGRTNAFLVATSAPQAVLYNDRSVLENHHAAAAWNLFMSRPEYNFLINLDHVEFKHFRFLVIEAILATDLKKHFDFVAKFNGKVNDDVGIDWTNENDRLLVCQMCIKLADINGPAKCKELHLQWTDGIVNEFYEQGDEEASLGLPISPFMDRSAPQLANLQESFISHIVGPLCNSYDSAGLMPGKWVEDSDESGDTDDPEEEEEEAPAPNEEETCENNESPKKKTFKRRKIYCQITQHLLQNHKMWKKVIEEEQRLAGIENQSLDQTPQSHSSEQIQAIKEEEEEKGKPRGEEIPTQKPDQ

[10] = Half life in Beagle dog at 1 mg/kg, po measured at 0.25 to 24 hrs by LC-MS/MS analysis; type: ADME, organism-based, Canis lupus familiaris; conditions: in vivo, time 0.25-24 hrs
[11] = AUC (0 to infinity) in Wistar Han rat at 1 mg/kg, iv measured at 0.033 to 24 hrs by LC-MS/MS analysis; type: ADME, organism-based; parameters: time upper 24 hrs, dose 1 mg/kg, time lower 0.033 hrs, route iv; conditions: in vivo
[12] = Cmax in Wistar Han rat at 5 mg/kg, po measured at 0.083 to 24 hrs by LC-MS/MS analysis; type: ADME, organism-based; parameters: dose 5 mg/kg, time upper 24 hrs, time lower 0.083 hrs, route po; conditions: in vivo
Mus musculus [13] = test: Effect on body weight in anorexia/cachexia mouse model assessed as cumulative body weight gain at 10 mg/kg, po administered twice a day for 20 days and measured at 1 to 21 days; type: functional; conditions: time 1-21 day
Mus musculus [14] = test: Effect on body weight in anorexia/cachexia mouse model assessed as cumulative body weight gain at 3 mg/kg, po administered twice a day for 20 days and measured at 1 to 21 days; type: functional; conditions: time 1-21 day
[15] = Tmax in Wistar Han rat at 5 mg/kg, po measured at 0.083 to 24 hrs by LC-MS/MS analysis; type: ADME, organism-based; conditions: in vivo, time 0.083-24 hrs
[16] = Oral bioavailability in Beagle dog at 1 mg/kg measured at 0.25 to 24 hrs by LC-MS/MS analysis; type: ADME, organism-based, Canis lupus familiaris; conditions: in vivo, time 0.25-24 hrs
[17] = target: Sodium channel protein type 5 subunit alpha (Homo sapiens, UniProt Q14524); test: Inhibition of recombinant human Nav1.5 expressed in CHO cells by whole cell voltage clamp electrophysiology recording; type: cell-based
[18] = target: cGMP-specific 3',5'-cyclic phosphodiesterase (Homo sapiens, UniProt O76074); test: Inhibition of human PDE5A1
Phosphodiesterase 6 = test: Inhibition of human PDE6; type: protein assay
Melanocortin receptor 5 [19] = target: T1, Melanocortin receptor 5; test: Agonist activity at human MC5R expressed in CHO cells assessed as increase in alpha-MSH induced cAMP level measured for 60 mins; type: functional, cell-based

Sequence of Voltage-dependent L-type calcium channel subunit alpha-1C (Q13936 whole entry): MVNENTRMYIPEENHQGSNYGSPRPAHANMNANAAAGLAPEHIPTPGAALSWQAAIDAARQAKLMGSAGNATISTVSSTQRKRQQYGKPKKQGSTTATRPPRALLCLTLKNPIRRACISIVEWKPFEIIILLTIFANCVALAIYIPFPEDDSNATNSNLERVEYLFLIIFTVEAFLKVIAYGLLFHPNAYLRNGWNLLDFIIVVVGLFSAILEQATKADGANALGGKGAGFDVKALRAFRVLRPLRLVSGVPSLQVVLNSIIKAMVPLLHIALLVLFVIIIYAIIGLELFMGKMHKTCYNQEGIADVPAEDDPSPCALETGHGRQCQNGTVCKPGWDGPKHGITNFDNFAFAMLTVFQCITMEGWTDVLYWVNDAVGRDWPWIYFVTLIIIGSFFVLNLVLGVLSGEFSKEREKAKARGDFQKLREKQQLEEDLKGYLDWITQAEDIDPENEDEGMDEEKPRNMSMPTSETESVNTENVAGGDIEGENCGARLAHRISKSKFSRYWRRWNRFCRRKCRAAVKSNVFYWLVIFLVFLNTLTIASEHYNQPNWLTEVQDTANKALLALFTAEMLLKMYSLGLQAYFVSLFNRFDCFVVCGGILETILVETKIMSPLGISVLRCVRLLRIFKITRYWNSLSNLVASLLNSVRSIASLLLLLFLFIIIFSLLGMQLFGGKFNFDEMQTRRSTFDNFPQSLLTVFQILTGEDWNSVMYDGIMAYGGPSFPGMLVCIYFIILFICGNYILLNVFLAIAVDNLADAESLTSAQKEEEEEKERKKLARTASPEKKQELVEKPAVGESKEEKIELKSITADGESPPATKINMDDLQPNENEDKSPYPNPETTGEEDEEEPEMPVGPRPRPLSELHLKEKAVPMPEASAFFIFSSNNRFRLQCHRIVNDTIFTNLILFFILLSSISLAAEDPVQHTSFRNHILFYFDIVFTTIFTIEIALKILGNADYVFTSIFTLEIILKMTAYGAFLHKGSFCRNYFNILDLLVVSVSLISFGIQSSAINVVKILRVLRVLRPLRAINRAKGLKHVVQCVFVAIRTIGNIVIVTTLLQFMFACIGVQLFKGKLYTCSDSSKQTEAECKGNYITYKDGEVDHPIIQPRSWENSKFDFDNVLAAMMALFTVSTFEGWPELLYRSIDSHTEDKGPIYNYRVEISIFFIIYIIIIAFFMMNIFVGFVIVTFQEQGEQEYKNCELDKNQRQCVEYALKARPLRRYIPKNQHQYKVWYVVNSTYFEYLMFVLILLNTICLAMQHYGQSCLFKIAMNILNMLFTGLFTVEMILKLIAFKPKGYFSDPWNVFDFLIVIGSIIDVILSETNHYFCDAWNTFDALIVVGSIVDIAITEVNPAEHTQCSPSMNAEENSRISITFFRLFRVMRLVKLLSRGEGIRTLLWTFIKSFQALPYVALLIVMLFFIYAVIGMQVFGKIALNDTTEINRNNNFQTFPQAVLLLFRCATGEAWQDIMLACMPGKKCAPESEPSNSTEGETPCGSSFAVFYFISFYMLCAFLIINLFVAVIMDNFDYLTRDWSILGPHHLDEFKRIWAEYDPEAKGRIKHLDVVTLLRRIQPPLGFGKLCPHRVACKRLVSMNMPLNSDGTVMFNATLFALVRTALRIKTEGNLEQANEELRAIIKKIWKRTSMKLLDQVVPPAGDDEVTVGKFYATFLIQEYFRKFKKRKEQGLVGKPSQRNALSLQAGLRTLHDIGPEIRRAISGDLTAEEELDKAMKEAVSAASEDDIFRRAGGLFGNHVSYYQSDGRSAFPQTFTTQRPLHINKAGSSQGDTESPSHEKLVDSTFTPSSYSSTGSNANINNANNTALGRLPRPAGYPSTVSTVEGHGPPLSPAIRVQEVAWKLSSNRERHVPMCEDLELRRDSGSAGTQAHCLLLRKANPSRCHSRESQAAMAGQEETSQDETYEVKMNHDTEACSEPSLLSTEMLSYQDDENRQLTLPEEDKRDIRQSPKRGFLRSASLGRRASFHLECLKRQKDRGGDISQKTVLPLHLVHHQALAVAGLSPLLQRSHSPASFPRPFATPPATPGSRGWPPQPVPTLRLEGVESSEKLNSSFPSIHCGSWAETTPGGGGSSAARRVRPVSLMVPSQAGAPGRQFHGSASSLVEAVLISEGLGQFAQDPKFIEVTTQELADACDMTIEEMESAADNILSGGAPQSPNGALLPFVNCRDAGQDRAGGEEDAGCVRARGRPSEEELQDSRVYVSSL

COc1cc([C@@H](C)C(=O)N2CC[C@@]3(COc4cc(-c5ncccn5)c(C)nc4N3)C2)c(F)cn1
IC50 [1]: > 100 µM | Ki (Melanocortin receptor 5 [2]): 0.84 µM | Activity (Mus musculus [3]): Dose-Dependent Effect | AUC [4]: 1660 ng·h/mL | Activity (Mus musculus [5]): 26% | Tmax [6]: 22.8 min | AUC(0-inf) [7]: 1120 ng·h/mL | IC50 [8]: > 50 µM | IC50 [9]: > 50 µM | half-life [10]: 216 min | AUC(0-inf) [11]: 785 ng·h/mL | Cmax [12]: 600 ng/mL | Activity (Mus musculus [13]): 22% | Activity (Mus musculus [14]): 9% | Tmax [15]: 30 min | F [16]: 93% | IC50 [17]: > 100 µM | IC50 [18]: > 50 µM | IC50 (Phosphodiesterase 6): > 50 µM | Activity (Melanocortin receptor 5 [19]): inactive
